Data from patent publication US20260234165A1, “MACROCYCLIC COMPOUNDS, PREPARATION METHOD THEREFOR, AND USE THEREOF” (GENFLEET THERAPEUTICS (SHANGHAI) INC., priority 2004, published 2026).
Read-outs that look alike come from different tables or passages of the source.

Key:
Assay type in all cases: cell-based, human
[1] = test system: p-ERK in NCI-H441 cells (KRAS G12V mutation); experiment: Cell p-ERK assay (HTRF) in NCI-H441 cells; conditions: NCI-H441 cells, 3 h compound incubation, HTRF p-ERK T202/Y204, read-out: H441 p-ERK IC50
Method in brief: (§1)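 Cells are plated (AsPC-1 at 10000, NCI-H441 at 20000 per well) and cultured overnight. Next day compound is added in a 3.16-fold dilution series with 0.1% DMSO and left 3 h. After lysis, p-ERK antibodies incubate 4 h before HTRF reading and four-parameter IC50 fitting.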

[2] = test system: p-ERK in AsPC-1 cells (KRAS G12D mutation); experiment: Cell p-ERK assay (HTRF) in AsPC-1 cells; conditions: AsPC-1 cells, 3 h compound incubation, HTRF p-ERK T202/Y204, read-out: AsPC-1 p-ERK IC50
Method in brief: as §1

[3] = test system: AsPC-1 cells (KRAS G12D mutation); experiment: 3D cell proliferation assay (CellTiter Glo-3D), AsPC-1; conditions: medium with 2% FBS, read-out: AsPC-1 AP IC50
Method in brief: (§2)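 Proliferation of the KRAS-mutant lines NCI-H441 and AsPC-1 is measured over 5 days of compound treatment in medium with 2% FBS. Inhibition is computed from luminescence relative to DMSO and cell-free controls, and IC50 comes from a four-parameter curve.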

[4] = test system: NCI-H441 cells; experiment: 3D cell proliferation assay (CellTiter Glo-3D), NCI-H441; conditions: medium with 2% FBS, read-out: H441 AP IC50
Method in brief: as §2

[5] = 3D cell proliferation (CellTiter Glo-3D)
[6] = Homo sapiens, ASPC1, 3D cell proliferation (CellTiter Glo-3D)
[7] = Homo sapiens, NCI-H441, 3D cell proliferation (CellTiter Glo-3D)

Compound	IC50 [1] [nM]	IC50 [2] [nM]	IC50 [3, 5] [nM]	IC50 [4, 5] [nM]	IC50 ([1]; Homo sapiens, NCI-H441, 3 h) [nM]	IC50 ([2]; Homo sapiens, ASPC1, 3 h) [nM]	IC50 [3, 6] [nM]	IC50 [4, 7] [nM]
CCn1c(-c2cc(C#C[C@@H]3CCCN3C)cnc2[C@H](C)OC)c2c3cc(ccc31)-c1csc(n1)C[C@H](NC(=O)[C@H]1[C@H](C)[C@@H]1C)C(=O)N1CCC[C@H](N1)C(=O)OCC(C)(C)C2 (atropisomer, axis not shown; (Ra)) [Compound Z598, (1r,2R,3S)—N-((6^3S,4S,Z)—(Ra)-1^1-ethyl-12-(2-((S)-1-methoxyethyl)-5-(((S)-1-methylpyrrolidin-2-yl)ethynyl)pyridin-3-yl)-10,10-dimethyl-5,7-dioxo-6^1,6^2,6^3,6^4,6^5,6^6-hexahydro-1^1H-8-oxa-2(4,2)-thiazola-1(5,3)-indola-6(1,3)-pyridazinacycloundecaphane-4-yl)-2,3-dimethylcyclopropane-1-carboxamide]	0.58	0.8	0.62	0.65				
CCn1c(-c2cc(C#C[C@H]3CCCN3C)cnc2[C@H](C)OC)c2c3cc(ccc31)-c1csc(n1)C[C@H](NC(=O)[C@H]1[C@H](C)[C@@H]1C)C(=O)N1CCC[C@H](N1)C(=O)OCC(C)(C)C2 (atropisomer, axis not shown; (Ra)) [Compound Z599, (1r,2S,3R)—N-((6^3S,4S,Z)—(Ra)-1^2-(5-(((R)-1-methylpyrrolidin-2-yl)ethynyl)-2-((S)-1-methoxyethyl)pyridin-3-yl)-1^1-ethyl-10,10-dimethyl-5,7-dioxo-6^1,6^2,6^3,6^4,6^5,6^6-hexahydro-1^1H-8-oxa-2(4,2)-thiazola-1(5,3)-indola-6(1,3)-pyridazinacycloundecaphane-4-yl)-2,3-dimethylcyclopropane-1-carboxamide]					0.7	1.05	2.15	1.17
CO[C@@H](C)c1ncc(OCCN2CCS(=O)(=O)CC2)cc1-c1c2c3cc(ccc3n1C(C)C)-c1csc(n1)C[C@H](NC(=O)[C@H]1C[C@@H]1C)C(=O)N1CCC[C@H](N1)C(=O)OCC(C)(C)C2 (atropisomer, axis not shown; (Ra)) [Compound Z603, (1S,2S)—N-((6^3S,4S,Z)—(Ra)-1^2-(5-(2-(1,l-dioxidothiomorpholino)ethoxy)2-((S)-1-methoxyethyl)pyridin-3-yl)-1^1-isopropyl-10,10-dimethyl-5,7-dioxo-6^1,6^2,6^3,6^4,6^5,6^6-hexahydro-1^1H-8-oxa-2(4,2)-thiazola-1(5,3)-indola-6(1,3)-pyridazinacycloundecaphane-4-yl)-2-methylcyclopropane-1-carboxamide]					0.22	0.6	0.89	0.31
CCn1c(-c2cc(OCCN3CCS(=O)(=O)CC3)cnc2[C@H](C)OC)c2c3cc(ccc31)-c1csc(n1)C[C@H](NC(=O)[C@H]1C[C@@H]1C)C(=O)N1CCC[C@H](N1)C(=O)OCC(C)(C)C2 (atropisomer, axis not shown; (Ra)) [Compound Z605]	0.3	0.6	0.5	0.26				
CC[C@H](C)C(=O)N[C@H]1Cc2nc(cs2)-c2ccc3c(c2)c(c(-c2cc(OCCN4CCS(=O)(=O)CC4)cnc2[C@H](C)OC)n3CC)CC(C)(C)COC(=O)[C@@H]2CCCN(N2)C1=O (atropisomer, axis not shown; (Ra)) [Compound Z609, (2S)—N-((6^3S,4S,Z)—(Ra)-1^2-(5-(2-(1,1-dioxidothiomorpholino)ethoxy)-2-((S)-1-methoxyethyl)pyridin-3-yl)-1^1-ethyl-10,10-dimethyl-5,7-dioxo-6^1,6^2,6^3,6^4,6^5,6^6-hexahydro-1^1H-8-oxa-2(4,2)-thiazola-1(5,3)-indola-6(1,3)-pyridazinacycloundecaphane-4-yl)-2-methylbutanamide]					0.76	0.76	0.79	0.22
CC[C@@H](C)C(=O)N[C@H]1Cc2nc(cs2)-c2ccc3c(c2)c(c(-c2cc(OCCN4CCS(=O)(=O)CC4)cnc2[C@H](C)OC)n3CC)CC(C)(C)COC(=O)[C@@H]2CCCN(N2)C1=O (atropisomer, axis not shown; (Ra)) [Compound Z610, (2R)—N-((6^3S,4S,Z)—(Ra)-1^2-(5-(2-(1,1-dioxidothiomorpholino)ethoxy)-2-((S)-1-methoxyethyl)pyridin-3-yl)-1^1-ethyl-10,10-dimethyl-5,7-dioxo-6^1,6^2,6^3,6^4,6^5,6^6-hexahydro-1^1H-8-oxa-2(4,2)-thiazola-1(5,3)-indola-6(1,3)-pyridazinacycloundecaphane-4-yl)-2-methylbutanamide]					0.57	0.71	1.37	0.32

Continued by falling IC50 ([2]; Homo sapiens, ASPC1, 3 h), values first:

IC50 [1] [nM]	IC50 [2] [nM]	IC50 [3, 5] [nM]	IC50 [4, 5] [nM]	IC50 ([1]; Homo sapiens, NCI-H441, 3 h) [nM]	IC50 ([2]; Homo sapiens, ASPC1, 3 h) [nM]	IC50 [3, 6] [nM]	IC50 [4, 7] [nM]	Compound
0.51			0.36		0.51	0.66		CCn1c(-c2cc(OCCN3CC[S+]([O-])CC3)cnc2[C@H](C)OC)c2c3cc(ccc31)-c1csc(n1)C[C@H](NC(=O)[C@H]1[C@H](C)[C@@H]1C)C(=O)N1CCC[C@H](N1)C(=O)OCC(C)(C)C2 (atropisomer, axis not shown; (Ra)) [Compound Z600]
				0.62	0.49	0.58	0.36	CCn1c(-c2cc(OCCN3CCS(=O)(=NC)CC3)cnc2[C@H](C)OC)c2c3cc(ccc31)-c1csc(n1)C[C@H](NC(=O)[C@H]1[C@H](C)[C@@H]1C)C(=O)N1CCC[C@H](N1)C(=O)OCC(C)(C)C2 (atropisomer, axis not shown; (Ra)) [Compound Z601, (1r,2R,3S)—N-((6^3S,4S,Z)-1^1-ethyl-1^2-(Ra)-(2-((S)-1-methoxyethyl)-5-(2-(1-(methylimino)-1-oxido-1λ^6-thiomorpholino)ethoxy)pyridin-3-yl)-10-10-dimethyl-5,7-dioxo-6^1,6^2,6^3,6^4,6^5,6^6-hexahydro-1^1H-8-oxa-2(4,2)-thiazola-1(5,3)-indola-6(1,3)-pyridazinacycloundecaphane-4-yl)-2,3-dimethylcyclopropane-1-carboxamide]
				0.23	0.09	0.11	0.15	CCn1c(-c2cc(OCC3(N4CCS(=O)(=O)CC4)CC3)cnc2[C@H](C)OC)c2c3cc(ccc31)-c1csc(n1)C[C@H](NC(=O)[C@H]1[C@H](C)[C@@H]1C)C(=O)N1CCC[C@H](N1)C(=O)OCC(C)(C)C2 (atropisomer, axis not shown; (Ra)) [Compound Z614, (1r,2R,3S)—N-((6^3S,4S,Z)-1^2-(5-((1-(1,1-dioxidothiomorpholino)cyclopropyl)methoxy)-2-((S)-1-methoxyethyl)pyridin-3-yl)-1^1-ethyl-(Ra)-10,10-dimethyl-5,7-dioxo-6^1,6^2,6^3,6^4,6^5,6^6-hexahydro-1^1hydrogen-8-oxa-2(4,2)-thiazola-1(5,3)-indola-6(1,3)-pyridazinacycloundecaphane-4-yl)-2,3-dimethylcyclopropane-1-carboxamide]
